The record followed here is patent US3991202A, “Imidazolium salts” (Janssen Pharmaceutica N.V., priority 1974, dated 1976).

Where two headings read alike, the source gives them in different places.

Assay type in all cases: cell-based
One assay relates to Cryptococcus neoformans. Nature of the assay: Antifungal growth inhibition in Sabouraud's liquid medium. Conditions: Cryptococcus neoformans, 336 h; Cr.n.; tested at 100, 10, 1 μg/ml; read-out: Concentrations in μg/ml for 100% Inhibition of Growth. The method in brief: (§1)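 Compounds were tested in Sabouraud's liquid medium at final 100, 10 and 1 μg/ml against ethanol-matched controls; filamentous fungi were inoculated as 2 mm blocks and yeasts as 0.05 ml of 3-day culture, with incubation at 25° C for 14 days.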

Assay [1] deals with Ctenomyces mentagrophytes. The assay is described as above. The conditions noted are these: Trichophyton mentagrophytes, 336 h; Ct.m.; tested at 100, 10, 1 μg/ml; read-out: Concentrations in μg/ml for 100% Inhibition of Growth. The essentials: as §1
The test system of the next assay is Microsporum canis. Described as above. Conditions: Microsporum canis, 336 h, M.c., read-out: Concentrations in μg/ml for 100% Inhibition of Growth. The method in brief: as §1
For the next assay, the system named is Trichophyton rubrum. The description is as above. Conditions: Trichophyton rubrum, 336 h; Tr.r.; tested at 100, 10, 1 μg/ml; read-out: Concentrations in μg/ml for 100% Inhibition of Growth. The essentials: as §1
The subject of a further assay is Erysipelothrix insidiosa. Nature of the assay: Antibacterial growth inhibition in phenol red dextrose broth. The conditions noted are these: Erysipelothrix rhusiopathiae, 168 h; E. ins.; tested at 100, 10, 1 μg/ml; read-out: Concentration in μ g for 100% Growth Inhibition. The essentials:
(§2)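 Bacteria grown in phenol red dextrose broth with imidazolium salt at 100, 10 and 1 μg/ml, inoculated with a loop from a 24 hour broth culture.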

In another assay the test system is Escherichia coli. Described as above. Conditions: 168 h, E. coli, tested at 100, 10, 1 μg/ml, read-out: Concentration in μ g for 100% Growth Inhibition. The essentials: as §2
Another assay concerns Pseudomonas aeruginosa. The description is as above. Conditions: 168 h, Ps. aer., tested at 100, 10, 1 μg/ml, read-out: Concentration in μ g for 100% Growth Inhibition. The essentials:
as §2

Assay [2] has as its system Salmonella pullorum gallinarum. Described as above. The conditions noted are these: Salmonella enterica, 168 h; Sp. G.; tested at 100, 10, 1 μg/ml; read-out: Concentration in μ g for 100% Growth Inhibition. The essentials:
as §2

For assay [3], the system named is Staphylococcus hemolyticus. The description is as above. Conditions: 168 h, Staph., tested at 100, 10, 1 μg/ml, read-out: Concentration in μ g for 100% Growth Inhibition. The method in brief:
as §2

The subject of a further assay is Streptococcus pyogenes. The description is as above. Conditions: 168 h, Strep., tested at 100, 10, 1 μg/ml, read-out: Concentration in μ g for 100% Growth Inhibition. The method in brief:
as §2

For the compound `O=C(C[n+]1ccn(CC(OCc2ccc(Cl)cc2Cl)c2ccc(Cl)cc2Cl)c1)c1ccc(F)cc1.[Cl-]` (stereo not drawn) [CH2COC6H4pF, 1-[2,4-dichloro-β-(2,4-dichlorobenzyloxy)phenethyl]-3-(p-fluorobenzoylmethyl)-imidazolium chloride], the MIC in the assay with Cryptococcus neoformans was determined as 10 µg/mL; in [1] it was 1 µg/mL; in the assay with Microsporum canis (tested at 100, 10, 1 μg/ml), 1 µg/mL; in the assay with Trichophyton rubrum it was 1 µg/mL; in the assay with Erysipelothrix insidiosa it was 1 µg/mL; with Escherichia coli, 10 µg/mL. Moreover, the MIC in the assay with Pseudomonas aeruginosa came to 100 µg/mL; in assay [2], 10 µg/mL; in assay [3] it was 1 µg/mL; in the assay on Streptococcus pyogenes, 1 µg/mL.

As for `Cc1ccccc1NC(=O)C[n+]1ccn(CC(OCc2ccc(Cl)cc2Cl)c2ccc(Cl)cc2Cl)c1` (stereo not drawn) [CH2CONHC6H4oCH3, 1-[2,4-Dichloro-β-(2,4-dichlorobenzyloxy)phenethyl]-3-(N-o-tolylcarbamoylmethyl)imidazolium chloride], the MIC was 1 µg/mL in the assay on Cryptococcus neoformans; 1 µg/mL in [1]; 10 µg/mL with Microsporum canis (tested at 100, 10, 1 μg/ml); 1 µg/mL in the assay with Trichophyton rubrum; 1 µg/mL in the assay with Erysipelothrix insidiosa; 10 µg/mL in the assay on Escherichia coli. Besides, the MIC with Pseudomonas aeruginosa worked out at 100 µg/mL; in assay [2], 10 µg/mL; in assay [3], 1 µg/mL; in the assay with Streptococcus pyogenes, 1 µg/mL.

As for `O=C(C[n+]1ccn(CC(OCc2ccc(Cl)cc2Cl)c2ccc(Cl)cc2Cl)c1)Nc1ccc(Cl)cc1Cl` (stereo not drawn) [CH2CONHC6H32,4(Cl)2, 1-[2,4-dichloro-β-(2,4-dichlorobenzyloxy)phenethyl]-3-[N-(2,4-dichlorophenyl)carbamoylmethyl]imidazolium chloride hydrate], the MIC in the assay on Cryptococcus neoformans came out at 1 µg/mL; in [1] it was 10 µg/mL; in the assay with Microsporum canis (tested at 100, 10, 1 μg/ml), 10 µg/mL; in the assay on Trichophyton rubrum it was 10 µg/mL; in the assay on Erysipelothrix insidiosa it was 1 µg/mL; in the assay with Escherichia coli, 10 µg/mL. Further, the MIC in the assay on Pseudomonas aeruginosa worked out at 100 µg/mL; in [2], 10 µg/mL; in [3] it was 1 µg/mL; in the assay on Streptococcus pyogenes, 1 µg/mL.

`O=C(C[n+]1ccn(CC(OCc2ccc(Cl)cc2)c2ccc(Cl)cc2)c1)Nc1ccc(F)cc1` (stereo not drawn) [pClC6H4/CH2C6H4pCl/CH2CONHC6H4pF, 1-[p-Chloro-β-(p-chlorobenzyloxy)phenethyl]-3-[N-(p-fluorophenyl)carbamoylmethyl]imidazolium chloride]: the MIC in the assay on Cryptococcus neoformans was 100 µg/mL; in assay [1], 1 µg/mL; in the assay with Microsporum canis (growth observed at 100 μg/ml), > 100 µg/mL; in the assay with Trichophyton rubrum it was 10 µg/mL; in the assay on Erysipelothrix insidiosa, 10 µg/mL; in the assay on Escherichia coli it was 100 µg/mL. Besides, the MIC in the assay on Pseudomonas aeruginosa worked out at 100 µg/mL; in assay [2], 10 µg/mL; in assay [3] it was 10 µg/mL; in the assay with Streptococcus pyogenes it was 1 µg/mL.
